Eight compounds from US20070179060A1, “6-(Poly-substituted aryl)-4-aminopicolinates and their use as herbicides” (priority 2006, published 2007) can be followed below.

Common to all, as to format: in vivo
Assay [1] has as its system lambsquarter (Chenopodium album). In words: Preemergence herbicidal activity. Conditions: Chenopodium album, pre-emergence, 480 h, pre-emergent, after 20-22 days, read-out: % Control CHEAL; for pest or weed control at 140 g/ha: 140 g ai/ha. Summed up: (§1)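 Seeds sown in 70:30 loam (pH about 8.1, about 1.5% organic matter) and sand mix, then sprayed preemergence at 187 L/ha with a track sprayer; controls received solvent blank. Pots kept in greenhouse, about 15 h photoperiod, about 23-29° C. day and 22-28° C. night, top-irrigated.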

Assay [2] deals with velvetleaf (Abutilon theophrasti). Put plainly: Preemergence herbicidal activity. To be noted: Abutilon theophrasti, pre-emergence, 480 h, pre-emergent, after 20-22 days, read-out: % Control ABUTH; for pest or weed control at 140 g/ha: 140 g ai/ha. Summed up:
as §1

Assay [3] concerns redroot pigweed (Amaranthus retroflexus). In words: Preemergence herbicidal activity. Conditions: Amaranthus retroflexus, pre-emergence, 480 h, pre-emergent, after 20-22 days, read-out: % Control AMARE; for pest or weed control at 140 g/ha: 140 g ai/ha. The method, boiled down: as §1
Assay [4] has as its system lambsquarter (Chenopodium album). Put plainly: Postemergence herbicidal activity. To be noted: post-emergent, 140 g ai/ha, after 14 days; for pest or weed control at 140 g/ha: Chenopodium album, post-emergence, 336 h, read-out: % Control CHEAL. Summed up: (§2)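 Compounds were applied postemergence by track sprayer delivering 187 L/ha, using a mixed organic/aqueous carrier containing crop oil concentrate and surfactant; solvent-blank sprays served as controls. Test plants were at the first to second true leaf stage after 7-21 days' greenhouse growth, were sub-irrigated after treatment, and were evaluated by probit analysis.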

Assay [5] deals with velvetleaf (Abutilon theophrasti). In words: Postemergence herbicidal activity. Conditions: post-emergent, 140 g ai/ha, after 14 days; for pest or weed control at 140 g/ha: Abutilon theophrasti, post-emergence, 336 h, read-out: % Control ABUTH. Summed up:
as §2

For assay [6], the system named is redroot pigweed (Amaranthus retroflexus). Put plainly: Postemergence herbicidal activity. Conditions: post-emergent, 140 g ai/ha, after 14 days; for pest or weed control at 140 g/ha: Amaranthus retroflexus, post-emergence, 336 h, read-out: % Control AMARE. The method, boiled down:
as §2

Assay [7] has as its system Scirpus juncoides. Put plainly: Herbicidal activity in transplanted paddy rice. Conditions: Schoenoplectiella juncoides, 504 h, paddy water application, after 3 weeks, read-out: % Control SCPJU; for pest or weed control at 17.5 g/ha: 17.5 g ai/ha; for pest or weed control at 70 g/ha: 70 g ai/ha. Summed up: (§3)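 Rice seedlings transplanted at second to third leaf stage and weeds from seed were grown in flooded mud pots in a greenhouse (~29/26 °C, 14 h photoperiod). At second or third true leaf stage, acetone stock solutions were injected into the paddy water at the high rate and ½× to 1/16× dilutions. Solvent-blank controls.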

Assay [8] relates to Cyperus difformis. Put plainly: Herbicidal activity in transplanted paddy rice. Conditions: Cyperus difformis, 504 h, paddy water application, after 3 weeks, read-out: % Control CYPDI; for pest or weed control at 17.5 g/ha: 17.5 g ai/ha; for pest or weed control at 70 g/ha: 70 g ai/ha. Summed up: as §3
For assay [9], the system named is Monochoria vaginalis. In words: Herbicidal activity in transplanted paddy rice. To be noted: Pontederia vaginalis, 504 h, paddy water application, after 3 weeks, read-out: % Control MOOVA; for pest or weed control at 17.5 g/ha: 17.5 g ai/ha; for pest or weed control at 70 g/ha: 70 g ai/ha. The method, boiled down:
as §3

For assay [10], the system named is Echinochloa crus-galli. Put plainly: Herbicidal activity in transplanted paddy rice. To be noted: Echinochloa crus-galli, 504 h, paddy water application, after 3 weeks, read-out: % Control ECHCG; for pest or weed control at 17.5 g/ha: 17.5 g ai/ha; for pest or weed control at 70 g/ha: 70 g ai/ha. Summed up:
as §3

Consider `COC(=O)c1nc(-c2ccc(Br)c(OC)c2F)cc(N)c1Cl` [Compound 27, 4-amino-6-(4-bromo-2-fluoro-3-methoxyphenyl)-3-chloro-pyridine-2-carboxylic acid methyl ester], for which the pest or weed control at 140 g/ha in [1] is 90%; in assay [2], 100%; in assay [3] it was 100%; in [4] it was 100%; in [5], 100%; in [6] it was 90%. The pest or weed control at 17.5 g/ha worked out at 99% in [7], 100% in assay [8], 100% in [9] and 45% in assay [10].

On to `COC(=O)c1nc(-c2ccc(Cl)c(OC)c2F)cc(N)c1Cl` [Compound 42, 4-Amino-3-chloro-6-(4-chloro-2-fluoro-3-methoxyphenyl)pyridine-2-carboxylic acid methyl ester], for which the pest or weed control at 140 g/ha in assay [1], in assay [2], in assay [3], in assay [4], in assay [5] and in assay [6] was 100% throughout. Also, the pest or weed control at 17.5 g/ha amounted to 90% in assay [7], 100% in assay [8], 100% in [9] and 40% in assay [10].

For the compound `COC(=O)c1nc(-c2ccc(Cl)c(OC)c2Cl)cc(N)c1Cl` [Compound 44, 4-Amino-3-chloro-6-(2,4-dichloro-3-methoxyphenyl)pyridine-2-carboxylic acid methyl ester], the pest or weed control at 140 g/ha came out at 95% in assay [1]; 95% in assay [2]; 30% in assay [3]; 100% in assay [4]; 100% in assay [5]; 100% in assay [6]. The pest or weed control at 70 g/ha in assay [7] came to 95%; in assay [8] it was 100%; in assay [9], 90%; in [10], 50%.

Take `COC(=O)c1nc(-c2c(F)cc(Cl)c(OC)c2F)cc(N)c1Cl` [Compound 58, 4-Amino-3-chloro-6-(4-chloro-2,6-difluoro-3-methoxyphenyl)pyridine-2-carboxylic acid, methyl ester]: the pest or weed control at 140 g/ha in assay [1], in assay [2], in [3], in assay [4], in assay [5] and in [6] was 100% each time. Besides, the pest or weed control at 17.5 g/ha was 50% in assay [7], 100% in [8], 100% in assay [9] and 30% in assay [10].

With `COC(=O)c1nc(-c2ccc(F)c(OC)c2F)cc(N)c1Cl` [Compound 70, 4-Amino-3-chloro-6-(2,4-difluoro-3-methoxyphenyl)pyridine-2-carboxylic acid, methyl ester], the pest or weed control at 140 g/ha in assay [1], in assay [2], in assay [3], in assay [4], in assay [5] and in [6] was 100% in each case. The pest or weed control at 70 g/ha stood at 95% in assay [7], 95% in [8], 100% in assay [9] and 45% in assay [10].

In the case of `COC(=O)c1nc(-c2c(F)cc(Br)c(OC)c2F)cc(N)c1Cl` [Compound 77, 4-Amino-6-(4-bromo-2,6-difluoro-3-methoxyphenyl)-3-chloropyridine-2-carboxylic acid, methyl ester], the pest or weed control at 140 g/ha in [1], in [2], in [3], in assay [4], in assay [5] and in assay [6] was 100% each time. Also, the pest or weed control at 35 g/ha in assay [7] (35 g ai/ha) is 99%; in [8] (35 g ai/ha), 100%; in assay [9] (35 g ai/ha), 100%; in assay [10] (35 g ai/ha), 70%.

On to `COc1c(Cl)ccc(-c2cc(N)c(Cl)c(C(=O)O)n2)c1F` [Compound 100, 4-Amino-3-chloro-6-(4-chloro-2-fluoro-3-methoxyphenyl)pyridine-2-carboxylic acid], for which the pest or weed control at 140 g/ha in assay [1], in assay [2], in [3], in [4], in [5] and in assay [6] was 100% in each case. Also, the pest or weed control at 17.5 g/ha in assay [7] came to 80%; in [8], 100%; in [9] it was 100%; in assay [10], 30%.

Take `COc1c(Cl)ccc(-c2cc(N)c(Cl)c(C(=O)O)n2)c1Cl` [Compound 103, 4-Amino-3-chloro-6-(2,4-dichloro-3-methoxyphenyl)pyridine-2-carboxylic acid]: the figures for the pest or weed control at 123 g/ha in assay [1] (123 g ai/ha), in assay [2] (123 g ai/ha) and in assay [3] (123 g ai/ha) were 100%, 90% and 100%, respectively. In addition, in assay [4], the “% Control CHEAL” value came out at 100%. In addition, in [5], the “% Control ABUTH” value was determined as 95%. The “% Control AMARE” value in [6] turned out to be 100%. For the same compound, the pest or weed control at 70 g/ha stood at 95% in assay [7], 100% in [8], 100% in [9] and 40% in assay [10].
